According to patent publication US20240415804A1, “METHOD OF TREATING PANCREATIC CANCER” (University of South Florida, priority 2022, published 2024):

Key:
miR-155 = miR-155 gene expression by RT-qPCR in Panc02 cells; type: cell-based, mouse; settings: API 40 μM, 24 h, vs DMSO vehicle
Experimental: MiR-155 is known to be overexpressed in different cancers, including PC^21, 23. The inventors first assessed whether apigenin could modulate the expression of miR-155 in PC cells. Murine PC cell lines Panc02 and UN-KC-6141 as well as the human PC cell line MiaPaCa-2 were treated with API (40 μM) or DMSO vehicle for 24 h and the expression of miR-155 was examined using RT-qPCR assay. […] Since API is known to inhibit the growth of cancer cells, including PC cells^39-43, 47-50, the same PC cell lines were treated with API (40 μM) or DMSO (vehicle) for 24 h and examined cell viability using MTT assay. […] Moreover, Panc02 and UN-KC-6141 cells were then treated with API at a dose dependent concentration (10, 20, 30, 40, 50 μM) and detected apoptosis using flow cytometry (Annexin V and PI).
miR-155 is implicated in the development of pancreatic tumors from pancreatic intraepithelial neoplasia (PanIN) lesions, and is overexpressed in PC^23. The inventors examined whether the depletion of miR-155 modulated PC viability. Murine and human PC cell lines were transfected with miR-155 inhibitor (i.e., MMU-MIR-155-5P/HSA-MIR-155-5P) and scrambled miRNA at a concentration of 100 nM for 24 h and cell viability determined using an MTT assay. The expression of miR-155 was examined using an RT-qPCR assay as well. […]

UN-KC-6141 cells = test: Apoptosis by flow cytometry (Annexin V and PI), UN-KC-6141; type: cell-based, mouse; settings: API 10, 20, 30, 40, 50 μM, 24 h
Experimental: Panc02 and UN-KC-6141 cells were seeded in 6-well plates allowed to grow to 50-60% confluency. Cells were then treated with API at a dose-dependent concentration (10, 20, 30, 40, 50 μM) or DMSO (1%) as vehicle control and incubated for 24 h at 37° C. in a humidified atmosphere of 5% CO2. Cells were collected and stained with a FITC Annexin V Apoptosis Detection Kit I (BD Bioscience, San Jose, CA, USA) according to the manufacturer's instructions. Acquisition of samples was performed using a flow cytometer BD LSRII (BD Biosciences Immunocytometry Systems, San Jose, CA, USA). FlowJo v10.8 software (TreeStar Inc., Ashland, OR, USA) was used for data analysis.

UN-KC-6141 tumors = test: Tumor growth in KC-HPC mice; type: in vivo, mouse; settings: API 25 mg/kg IP three times per week
Experimental: To build on these findings, the inventors then used a novel pancreatic cancer cell line, UN-KC-6141, that resembles human PC due to its expression of a mutated Kras and generated mice harboring these tumor cells, called KC-HPC mice. Such mice were treated with API at a dose of 25 mg/kg (IP) three times per week for 17 days. The inventors examined if API also targets miR-155 and regulates SHIP-1 in the tumors from KC-HPC mouse model. […] All female C57BL/6 mice (6-8 weeks of age) described in this study were purchased from Envigo (Indianapolis, IN, USA) and were acclimatize for one week in a pathogen-free animal facility (University of South Florida (USF) vivarium) before injections with PC cells. To generate heterotopic pancreatic cancer (HPC) models, mice were subcutaneously injected with 1.5×10^5 murine Panc02 (HPC mice) or 5×10^6 murine UN-KC-6141 cells (KC-HPC mice), in sterile 1× phosphate buffer saline (PBS), in the lower ventral abdomen, while control (CTRL) mice received sterile 1×PBS. Once tumors where palpable, API (25 mg/kg, 100 μL volume) treatments (HPC-API and KC-HPC-API), via intraperitoneal (IP) injections, were started while CTRL, HPC and KC-HPC mice received sterile PBS (vehicle) three times per week until the end of the study^12, 55. The HPC models were euthanized 21-28 days post-injection, while the KC-HPC models were euthanized 16-17 days post-injection.

O=c1cc(-c2ccc(O)cc2)oc2cc(O)cc(O)c12 [API, 40,5,7-Trihydroxyflavone, 5,7-Dihydroxy-2-(4-hydroxyphenyl)-4-benzopyrone]
miR-155 gene expression (miR-155): significantly suppressed
apoptosis (Annexin V and PI) (UN-KC-6141 cells): induces apoptosis
tumor burden (tumor volume, tumor area) (UN-KC-6141 tumors): significantly reducing
